Measurements reported in article PMC4643876, “Picomolar Inhibition of Plasmepsin V, an Essential Malaria Protease, Achieved Exploiting the Prime Region” (PLoS ONE, 2015).
Like-named read-outs stand apart in the source and are kept apart here. Square brackets hold non-standard residues; d marks the D form. Peptide text beside a SMILES is read from it. * marks the point of attachment. Sta = CC(C)C[C@H](N)[C@@H](O)CC(=O)O; Isovaleryl = CC(C)CC(=O)*

What was measured:
[1] = biological target: T1, Plasmepsin V (PmV) (Plasmodium falciparum, UniProt Q8I6Z5); assay: PmV inhibition, fluorimetric PExEl cleavage assay; type: biochemical
T1 construct: PmV was purified directly from parasites; made in house
Experimental: Saponin was added to culture to a final 0.05%; parasites were recovered via centrifugation at 4°C after 5 min of incubation on ice; parasite pellets were then washed twice in cold PBS and either immediately lysed or stored at -80°C until lysis. Parasites were lysed via three pulses of ultra-sonication of 10 sec duration, in PBS containing 0.5% Triton-X100 (TX-100). […] Quick washes of the resin were performed either in batches, or over columns, to remove unbound cellular material (four with ice-cold 0.5% TX-100 in PBS and a final one with cold PBS). Resin-bound PmV was stored in PBS at 4°C and used within 2–3 weeks, larger batches had Glycerol added to them, up to 10%, and were stored at -20°C for up to 5 months. […] Quality and purity of PmV batches were routinely confirmed by protein electrophoresis. Quantification of PmV was performed via densitometry analysis of stained protein SDS-PAGE gels relative to BSA standard curves.
PExEl cleavage activity was monitored by fluorimetric measurement of PExEl cleavage, as previously reported. […] PmV activity was performed at 37°C in 50 mM Tris-Maleate, pH 6.5, 50 mM NaCl, 0.05% TX-100, 2 mM DTT. Assays were routinely conducted in triplicate. Bead-bound enzyme was added to the reaction using ‘end-cut’ micropipette tips in order to facilitate sampling the suspension.
Inhibitory activities were measured in the presence of a substrate concentration of 3 μM by serial dilution of each compound in triplicates. […] Titration curves of the inhibitors were routinely composed of eleven points from 10 μM to 0.1 pM. PmV concentration was kept in the order of low picomolar (≤10 pM). […] Analysis of the half inhibitory activity (IC50) was performed by sigmoidal interpolation of the starting velocities of the hydrolytic reactions for each condition. Starting velocities were calculated on the initial linear range of the product progression curves. […] Data are presented with error bars indicating the standard deviation of three independent activity curves.

[2] = system: Plasmodium falciparum strain 3D7; assay: Parasite growth inhibition by flow cytometry, strain 3D7; type: cell-based; conditions: asynchronous 3D7 cultures, about 4 days, 0.195–200 μM, flow cytometry
[3] = 3 μM HRPII-PExEl substrate, averages of not less than three inhibition curves, read-out: IC50
[4] = 3 μM substrate, tested up to 10 μM, read-out: IC50
[5] = Activity, read-out: pIC50 (converted)

T1 sequence (Q8I6Z5 whole entry): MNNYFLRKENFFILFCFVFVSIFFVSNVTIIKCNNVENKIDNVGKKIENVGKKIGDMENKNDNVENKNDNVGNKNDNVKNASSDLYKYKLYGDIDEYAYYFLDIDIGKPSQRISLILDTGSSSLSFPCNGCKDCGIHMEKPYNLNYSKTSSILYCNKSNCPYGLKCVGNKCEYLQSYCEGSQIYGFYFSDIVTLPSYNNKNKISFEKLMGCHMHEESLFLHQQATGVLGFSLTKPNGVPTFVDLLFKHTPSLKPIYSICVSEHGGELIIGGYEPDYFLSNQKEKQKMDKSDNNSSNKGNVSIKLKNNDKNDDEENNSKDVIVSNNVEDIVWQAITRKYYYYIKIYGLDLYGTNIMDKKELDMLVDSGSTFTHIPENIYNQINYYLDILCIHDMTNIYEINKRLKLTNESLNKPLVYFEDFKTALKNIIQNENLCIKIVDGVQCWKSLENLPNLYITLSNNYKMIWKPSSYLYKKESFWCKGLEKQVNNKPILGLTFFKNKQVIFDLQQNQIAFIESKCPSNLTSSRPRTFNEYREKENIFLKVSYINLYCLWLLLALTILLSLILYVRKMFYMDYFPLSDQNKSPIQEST

SMILES	Ki [1] [nM]	IC50 [1, 3] [nM]	further results
CC(C)C[C@H](NC(=O)[C@H](CO)NC(=O)[C@@H](N)CCCNC(=N)N)C(O)CN[C@@H](Cc1ccc(O)cc1)C(=O)N[C@@H](CCC(=O)O)C(=O)N[C@@H](C)C(N)=O (mixture of isomers) [Compound 12]	12.4	23.1	IC50 increase compared to Compound 7a [1]: 15 fold
CC(C)C[C@H](NC(=O)[C@@H](N)CCCCN)C(=O)N[C@@H](CC(C)C)C(O)CN[C@@H](C)C(=O)N[C@@H](CCC(N)=O)C(=O)N[C@@H](C)C(N)=O (mixture of isomers) [Compound 18]		> 10000	
CC(C)C[C@H](NC(=O)[C@@H](N)CCCNC(=N)N)C(=O)N[C@@H](CC(C)C)C(O)CN[C@@H](C)C(=O)N[C@@H](CCC(=O)O)C(N)=O (mixture of isomers) [Compound 22]	0.22	0.42	
CC(C)C[C@H](NC(=O)[C@@H](N)CCCNC(=N)N)C(=O)N[C@@H](CC(C)C)C(O)CN[C@@H](C)C(=O)N[C@@H](CCC(N)=O)C(N)=O (mixture of isomers) [Compound 23]	6.94	12.9	IC50 increase compared to Compound 8a [1]: 2.5 fold
CC(C)C[C@H](NC(=O)[C@@H](N)CCCNC(=N)N)C(=O)N[C@@H](CC(C)C)C(O)CN[C@@H](C)C(=O)NCC(=O)O (mixture of isomers) [Compound 25]	8.03	15	
CC(C)C[C@H](NC(=O)[C@@H](N)Cc1c[nH]c2ccccc12)C(=O)N[C@@H](CC(C)C)C(O)CN[C@@H](C)C(=O)N[C@@H](CCC(=O)O)C(N)=O (mixture of isomers) [Compound 31]			IC50 [1, 4]: > 10000 nM
CC(C)C[C@H](NC(=O)[C@@H](N)Cc1c[nH]c2ccccc12)C(=O)N[C@@H](CC(C)C)C(O)CN[C@@H](C)C(=O)N[C@@H](CCC(=O)O)C(N)=O (mixture of isomers) [LG51_Mix]			IC50 ([1]; Activity, read-out: IC50): 39500 nM; IC50 [1, 5]: 39800 nM
CC(C)C[C@H](NC(=O)[C@@H](N)CCCNC(=N)N)C(=O)N[C@@H](CC(C)C)[C@@H](O)CN[C@@H](Cc1ccc(O)cc1)C(=O)N[C@@H](CCC(=O)O)C(N)=O [Compound 2a]	0.98	1.83	
CC(C)C[C@H](NC(=O)[C@@H](N)CCCNC(=N)N)C(=O)N[C@@H](CC(C)C)[C@H](O)CN[C@@H](Cc1ccc(O)cc1)C(=O)N[C@@H](CCC(=O)O)C(N)=O [Compound 2b]	17.3	32.2	
CC(C)C[C@H](NC(=O)[C@@H](N)Cc1ccc(O)cc1)C(=O)N[C@@H](CC(C)C)[C@@H](O)CN[C@@H](C)C(=O)N[C@@H](CCC(=O)O)C(=O)N[C@@H](C)C(N)=O [Compound 3a]	2510	4680	
CC(C)C[C@H](NC(=O)[C@@H](N)Cc1ccc(O)cc1)C(=O)N[C@@H](CC(C)C)[C@H](O)CN[C@@H](C)C(=O)N[C@@H](CCC(=O)O)C(=O)N[C@@H](C)C(N)=O [Compound 3b]	6570	~12200	
CC(C)C[C@H](NC(=O)[C@@H](N)CCCNC(=N)N)C(=O)N[C@@H](CC(C)C)[C@@H](O)CN[C@@H](Cc1ccc(O)cc1)C(=O)N[C@@H](CCC(=O)O)C(=O)N[C@@H](C)C(N)=O [Compound 7a]	0.74	1.38	IC50 increase compared to Compound 1 [1]: 4–7 fold
CC(C)C[C@H](NC(=O)[C@@H](N)CCCNC(=N)N)C(=O)N[C@@H](CC(C)C)[C@H](O)CN[C@@H](C)C(=O)N[C@@H](CCC(N)=O)C(=O)N[C@@H](C)C(N)=O [Compound 8b]			LD50 growth inhibition [2]: ~ 120.5 μM
CC(C)C[C@H](NC(=O)[C@@H](N)CCCNC(=N)N)C(=O)N[C@@H](CC(C)C)[C@@H](O)CN[C@@H](Cc1ccc(O)cc1)C(=O)N[C@@H](CCC(N)=O)C(=O)N[C@@H](C)C(N)=O [Compound 9a]	6.8	12.7	IC50 increase compared to Compound 7a [1]: ~ 9 fold; IC50 increase compared to Compound 8a [1]: 4–7 fold
CC(C)C[C@H](NC(=O)[C@H](C)NC(=O)[C@@H](N)CCCNC(=N)N)[C@@H](O)CN[C@@H](Cc1ccc(O)cc1)C(=O)N[C@@H](CCC(=O)O)C(=O)N[C@@H](C)C(N)=O [Compound 11a]	3.3	6.14	IC50 increase compared to Compound 7a [1]: 5 fold
CC(C)C[C@H](NC(=O)[C@@H](N)CCCCN)C(=O)N[C@@H](CC(C)C)[C@@H](O)CN[C@@H](C)C(=O)N[C@@H](CCC(=O)O)C(=O)N[C@@H](C)C(N)=O [Compound 13a]	412	767	IC50 [1, 4]: 770 nM
CC(C)C[C@H](NC(=O)[C@@H](N)Cc1c[nH]cn1)C(=O)N[C@@H](CC(C)C)[C@@H](O)CN[C@@H](C)C(=O)N[C@@H](CCC(=O)O)C(=O)N[C@@H](C)C(N)=O [Compound 14a]	910	1690	

SMILES	Ki [1] [nM]	IC50 [1, 3] [nM]	further results
CC(C)C[C@H](NC(=O)[C@@H](N)Cc1c[nH]c2ccccc12)C(=O)N[C@@H](CC(C)C)[C@@H](O)CN[C@@H](C)C(=O)N[C@@H](CCC(N)=O)C(=O)N[C@@H](C)C(N)=O [Compound 19a]	2760	5130	
CC(C)C[C@H](NC(=O)[C@@H](N)Cc1c[nH]cn1)C(=O)N[C@@H](CC(C)C)[C@@H](O)CN[C@@H](Cc1ccc(O)cc1)C(=O)N[C@@H](CCC(N)=O)C(=O)N[C@@H](C)C(N)=O [Compound 20a]	4410	8200	
CC(C)C[C@H](NC(=O)[C@@H](N)Cc1c[nH]c2ccccc12)C(=O)N[C@@H](CC(C)C)[C@@H](O)CN[C@@H](Cc1ccc(O)cc1)C(=O)N[C@@H](CCC(N)=O)C(=O)N[C@@H](C)C(N)=O [Compound 21a]	673	1250	
CC(C)C[C@H](NC(=O)[C@@H](N)CCCNC(=N)N)C(=O)N[C@@H](CC(C)C)[C@@H](O)CN[C@@H](C)C(=O)N[C@@H](CCC(N)=O)C(=O)O [Compound 24a]	8.9	16.6	
CC(C)C[C@H](NC(=O)[C@@H](N)CCCNC(=N)N)C(=O)N[C@@H](CC(C)C)[C@@H](O)CN[C@@H](Cc1ccc(O)cc1)C(=O)N[C@@H](CCC(N)=O)C(=O)O [Compound 26a]	9.35	17.4	
CC(C)C[C@H](NC(=O)[C@@H](N)CCCNC(=N)N)C(=O)N[C@@H](CC(C)C)[C@@H](O)CN[C@@H](Cc1ccc(O)cc1)C(=O)NCC(=O)O [Compound 27a]	1.86	3.47	
CC(C)C[C@H](NC(=O)[C@@H](N)CCCCN)C(=O)N[C@@H](CC(C)C)[C@@H](O)CN[C@@H](Cc1ccc(O)cc1)C(=O)N[C@@H](CCC(=O)O)C(N)=O [Compound 30a]			IC50 [1, 4]: > 10000 nM
CC(C)C[C@H](NC(=O)[C@@H](N)Cc1c[nH]c2ccccc12)C(=O)N[C@@H](CC(C)C)[C@@H](O)CN[C@@H](Cc1ccc(O)cc1)C(=O)N[C@@H](CCC(=O)O)C(N)=O [Compound 32a]			IC50 [1, 4]: > 10000 nM
CC(C)C[C@H](NC(=O)[C@@H](N)Cc1c[nH]c2ccccc12)C(=O)N[C@@H](CC(C)C)[C@@H](O)CN[C@@H](CO)C(=O)N[C@@H](CCC(=O)O)C(N)=O [Compound 33a]			IC50 [1, 4]: > 10000 nM
CC(C)C[C@H](NC(=O)[C@@H](N)Cc1c[nH]c2ccccc12)C(=O)N[C@@H](CC(C)C)[C@@H](O)CN[C@H](C(=O)N[C@@H](CCC(=O)O)C(N)=O)[C@@H](C)O [Compound 34a]			IC50 [1, 4]: > 10000 nM
CC(C)C[C@H](NC(=O)[C@@H](N)CCCNC(=N)N)C(=O)N[C@@H](CC(C)C)C(O)CN[C@@H](C)C(=O)N[C@@H](CCC(=O)O)C(=O)N[C@@H](C)C(N)=O (some centres unmarked) [LG20_Mix]			IC50 ([1]; Activity, read-out: IC50): 0.37 nM; IC50 [1, 5]: 0.363 nM
CC(C)C[C@H](NC(=O)[C@@H](N)CCCCN)C(=O)N[C@@H](CC(C)C)[C@@H](O)CN[C@@H](C)C(=O)N[C@@H](CCC(=O)O)C(N)=O [LG61A_S]			IC50 ([1]; Activity, read-out: IC50): 8180 nM; IC50 [1, 5]: 8130 nM
CC(C)C[C@H](NC(=O)[C@@H](N)CCCCN)C(=O)N[C@@H](CC(C)C)[C@@H](O)CN[C@@H](Cc1ccc(O)cc1)C(=O)N[C@@H](CCC(=O)O)C(N)=O [LG62A_S]			IC50 ([1]; Activity, read-out: IC50): 17500 nM; IC50 [1, 5]: 17400 nM
CCCCCCCC(=O)N[C@@H](CCCNC(=N)N)C(=O)N[C@@H](CC(C)C)C(=O)N[C@@H](CC(C)C)[C@H](O)CN[C@@H](Cc1ccc(O)cc1)C(=O)N[C@@H](CCC(=O)O)C(=O)N[C@@H](C)C(N)=O [LG63B_R]			IC50 ([1]; Activity, read-out: IC50): 1.57 nM; IC50 [1, 5]: 1.58 nM
CC(C)C[C@H](NC(=O)[C@@H](N)CCCNC(=N)N)C(=O)N[C@@H](CC(C)C)[C@H](O)CN[C@@H](Cc1ccc(O)cc1)C(=O)NCC(=O)O [LG69B_R]			IC50 ([1]; Activity, read-out: IC50): 111 nM; IC50 [1, 5]: 112 nM
Cc1cccc(C)c1OCC(=O)N[C@@H](Cc1ccccc1)[C@@H](O)C[C@H](Cc1ccccc1)NC(=O)[C@H](C(C)C)N1CCCNC1=O [Lopinavir, reference compound]	11000	20600	
CC(C)CC(=O)N[C@H](C(=O)N[C@H](C(=O)N[C@@H](CC(C)C)[C@@H](O)CC(=O)N[C@@H](C)C(=O)N[C@@H](CC(C)C)[C@@H](O)CC(=O)O)C(C)C)C(C)C [Pepstatin A, reference compound] (Isovaleryl-VV[Sta]A[Sta]-OH)	23400	43500	
